Activity calls are given as the source filed them. The calls are words filed in the database; no cut-off is given here.

The target of experiment [1] is T1, DNA polymerase beta (Homo sapiens, UniProt P06746). Description: Inhibition of human DNA polymerase beta assessed as inhibition of dCTP incorporation by gap filling assay.
Experiment [2] addresses T1, DNA polymerase beta. The experiment in a line: Inhibition of human DNA polymerase beta.

What is called Ki is the dissociation constant of the complex between target and ligand, obtained from inhibition or displacement. A higher Ki goes with weaker binding. Regarding `Nc1ccn([C@H]2C[C@H](O)[C@@H](COP(=O)(O)CP(=O)(O)OP(=O)(O)O)O2)c(=O)n1`, the outcome on DNA polymerase beta [1] was Active. Also, affinity on DNA polymerase beta [2] was put at a Ki of 900 nM. Compound `Nc1ncnc2c1ncn2[C@H]1C[C@H](O)[C@@H](COP(=O)(O)CP(=O)(O)OP(=O)(O)O)O1` came in with a Ki at DNA polymerase beta [2] of 5000 nM. On the same count and under the same terms, under `Cc1cn([C@H]2C[C@H](O)[C@@H](COP(=O)(O)CP(=O)(O)OP(=O)(O)O)O2)c(=O)[nH]c1=O` stands 600 nM; under `Nc1nc2c(ncn2[C@H]2C[C@H](O)[C@@H](COP(=O)(O)CP(=O)(O)OP(=O)(O)O)O2)c(=O)[nH]1`, 1000 nM.

For the origin of these results see ChEMBL document CHEMBL1140151, “Alpha,beta-methylene-2'-deoxynucleoside 5'-triphosphates as noncleavable substrates for DNA polymerases: isolation, characterization, and stability studies of novel 2'-deoxycyclonucleosides, 3,5'-cyclo-dG, and 2,5'-cyclo-dT” (J Med Chem, 2008).
